Where two headings read alike, the source gives them in different places.
Tests used:
leukemia and tumors = conditions: background statement on earlier compounds; cited from earlier work
[1] = background statement on earlier compounds; cited from earlier work
[2] = cited from earlier work
Leukemia L 1210 = test: Anti-leukemic activity on Leukemia L 1210 in mice (survival, percentage increase in life-span); format: in vivo, male BDF1 mice; conditions: for Survival days (mean): untreated control 8.0 days; for Number of survivors (after 60 days): survivors/animals after 60 days
Description: The anti-leukemic activity of some typical nitrosourea derivatives of the formula (I) according to this invention was tested on Leukemia L 1210 in mice, details of which are given below. By way of comparison, Streptozotocin was tested in the same way.
Male BDF1 mice, aging about 6-weeks old and weighing 22±1 g were used in groups of 5 animals each for the tests.
Each animal was inoculated with 10^6 cells of L 1210 intraperitoneally,and the test compound in the form as shown below was administered intraperitoneally from the 24th hour after inoculation once a day for 3 consecutive days. The anti-leukemic activity was assessed by comparing the mean survival days of the treated mice to that of the untreated control, i.e. percentage increase in life-span (ILS) which was calculated as follows:
Percentage increase in life-span (ILS)=(T-C/C)×100
T: The mean survival days of the treated animals
C: The mean survival days of the untreated animals
The compounds No. 1 and No. 3 were used in the form of an aqueous solution in distilled water and the compound No. 2 in the form of an aqueous suspension containing 1% CMC.

[3] = Acute toxicity in the intraperitoneal administration to BDF1 mice; conditions: mouse, in vivo, ip
From the text: It will be appreciated clearly from the tests results of Table 1 that the novel nitrosourea derivatives according to this invention gave a significant increase in life-span in therapeutic treatment of the leukemia in comparison with streptozotocin as a known anti-leukemic nitrosourea. The novel nitrosourea derivatives according to this invention are further characterized by their low toxicity, thus satisfying their practical application for treating leukemia and tumor diseases. For example, acute toxicity in the intraperitoneal administration to BDF1 mice of typical nitrosourea derivatives according to this invention is shown below: […]

[4] = background statement on earlier compounds
[5] = dose 4 mg/kg i.p. once a day for 3 days, 60 days observation
[6] = dose 4 mg/kg i.p. once a day for 3 days
[7] = dose 8 mg/kg i.p. once a day for 3 days, 60 days observation
[8] = dose 8 mg/kg i.p. once a day for 3 days
[9] = dose 1 mg/kg i.p. once a day for 3 days, 60 days observation
[10] = dose 2 mg/kg i.p. once a day for 3 days, 60 days observation

Structure (SMILES)	activity against the leukemia and tumors (leukemia and tumors)	ILS (percentage increase in life-span) (Leukemia L 1210; [5])	Survival days (mean) (Leukemia L 1210; [5])	Number of survivors (after 60 days) (Leukemia L 1210; [6])	ILS (percentage increase in life-span) (Leukemia L 1210; [7])	Survival days (mean) (Leukemia L 1210; [7])	Number of survivors (after 60 days) (Leukemia L 1210; [8])	LD50 [3]	other results
O=NN(CCCl)C(=O)N[C@@H]1O[C@H](CO)[C@@H](O)[C@H](O)[C@H]1O [1-(2-chloroethyl)-3-(β-D-glucopyranosyl)-1-nitrosourea]	remarkably high inhibitory activity against a variety of leukemia and tumors								hygroscopicity [1]: somewhat hygroscopic; side effect [2, 4]: low side effect; toxicity [2, 4]: low toxicity
CC(=O)N[C@@H]1[C@@H](OC(C)=O)[C@H](OC(C)=O)[C@@H](COC(C)=O)O[C@H]1NC(=O)N(CCCl)N=O [compound 1, 1-(2-Chloroethyl)-3-(2-acetamido-3,4,6-tri-O-acetyl-2-deoxy-β-D-glucopyranosyl)-1-nitrosourea]		78.8%	14.3 days	0/5	105.0%	16.4 days	0/5	25 mg/kg	
CC(=O)N[C@@H]1[C@@H](O)[C@H](O)[C@@H](CO)O[C@H]1NC(=O)N(CCCl)N=O [compound 2, 1-(2-Chloroethyl)-3-(2-acetamido-2-deoxy-β-D-glucopyranosyl)-1-nitrosourea]		95.0%	15.6 days	0/5	< 495.0%	< 47.6 days	3/5	20 mg/kg	ILS (percentage increase in life-span) (Leukemia L 1210; [9]): 41.3%; Survival days (mean) (Leukemia L 1210; [9]): 11.3 days; Number of survivors (after 60 days) (Leukemia L 1210; dose 1 mg/kg i.p. once a day for 3 days): 0/5; ILS (percentage increase in life-span) (Leukemia L 1210; [10]): 55.0%; Survival days (mean) (Leukemia L 1210; [10]): 12.4 days; Number of survivors (after 60 days) (Leukemia L 1210; dose 2 mg/kg i.p. once a day for 3 days): 0/5
CN(N=O)C(=O)N[C@H]1C(O)O[C@H](CO)[C@@H](O)[C@@H]1O (stereo partly drawn) [compound 3, N-(N'-methyl-N'-nitroso-carbamoyl)-D-glucosamine, reference compound]	insufficient activity against the leukemia and tumors								Survival days (mean) (Leukemia L 1210; dose 50 mg/kg i.p. once a day for 3 days, 60 days observation): 12.1 days; Number of survivors (after 60 days) (Leukemia L 1210; dose 50 mg/kg i.p. once a day for 3 days): 0/5; Survival days (mean) (Leukemia L 1210; dose 100 mg/kg i.p. once a day for 3 days, 60 days observation): 10.6 days; Number of survivors (after 60 days) (Leukemia L 1210; dose 100 mg/kg i.p. once a day for 3 days): 0/5; ILS (percentage increase in life-span) (Leukemia L 1210; ip, 50 mg/kg): 51.3%; ILS (percentage increase in life-span) (Leukemia L 1210; ip, 100 mg/kg): 32.5%; side effect ([2]; in vivo): undesirable side effect

Reference: US4157439A, “Novel nitrosourea derivatives” (priority 1976, dated 1979)
